Test results from patent publication US20260124197A1, “NOVEL HETEROBICYCLIC COMPOUND FOR INHIBITING YAP-TEAD INTERACTION AND PHARMACEUTICAL COMPOSITION COMPRISING SAME” (priority 2022, published 2026).

Assays:
[1] = system: TEAD transcriptional activity; test: TEAD reporter activity inhibition test (luciferase reporter, MCF7 cell line); assay type: cell-based; details: Homo sapiens; TEAD (GTIIC) firefly luciferase reporter MCF7 cell line, 24 hours, ONE-Glo luminescence
Experimental: Experimental Example 1: TEAD Reporter Activity Inhibition Test
The ability of the synthetic compounds to inhibit TEAD target gene transcription was measured. This evaluation method measures the transcriptional activity of TEAD by measuring the luciferase luminescence expressed when TEAD binds to a target gene and activates transcription using the MCF7 cell line (BPS Bioscience, Inc., USA) in which a firefly luciferase reporter gene has been introduced into the specific binding structure of TEAD, GTIIC (5′-ACATTCCA-3′). Cell lines were cultured in MEM medium added with 10% FBS, 1% Penicillin/Streptomycin, 1% non-essential amino acids, 10 μg/ml insulin, and 400 μg/ml Geneticin, and Geneticin was excluded when testing for inhibition of TEAD reporter activity. […] cells/100 μl were dispensed into a white 96-well plate and cultured for 6 hours. 50 μl of the test compound diluted to 3× concentration was mixed into each well. After 24 hours of cell culture, the luciferase signal was measured by luminescence using the ONE-Glo luciferase assay system (Promega, E6120) following the manufacturer's protocol. The 50% inhibition value (IC50) for TEAD transcriptional activity was calculated using GraphPad Prism 9.
If the IC50 value is less than 100 nM, it is indicated as A, if it is at least 100 nM but less than 500 nM, it is indicated as B, and if it is 500 nM or more, it is indicated as C.

[2] = system: NCI-H226 cells; test: Cell growth inhibition test (SRB); assay type: cell-based; details: Homo sapiens, 144 h; NCI-H226 mesothelioma cell line lacking the NF2 gene, cultured for 6 days, SRB test method
Experimental: Experimental Example 2: Cell Growth Inhibition Test
The synthetic compound was confirmed to inhibit cell growth in NCI-H226 cells. NCI-H226 is a mesothelioma cancer cell line lacking the NF2 gene, and was cultured in RPMI 1640 medium supplemented added with 10% FBS and 1% Penicillin/Streptomycin. Cultured cells were dispensed into 96-well plates at 0.7×10^3 cells/100 μl and cultured for 24 hours, then 100 μl of the test compound diluted to a 2× concentration were mixed into each well and cultured for 6 days. The SRB test method was used to measure cell growth inhibition, and the 50% inhibition value (GI50) for cell growth by the compound was calculated using GraphPad Prism 9.
If the GI50 value is less than 100 nM, it is indicated as A, and if it is 100 nM or more, it is indicated as B.

Structure (SMILES) | IC50 [1] [µM] | GI50 [2] [µM]
CNS(=O)(=O)c1ccc2c(c1)c(-c1cn(C)cn1)cn2-c1ccc(C(F)(F)F)cc1 [Example 2, N-methyl-3-(1-methyl-1H-imidazol-4-yl)-1-(4-(trifluoromethyl)phenyl)-1H-indole-5-sulfonamide] | < 0.1 | < 0.1
CCn1cnc(-c2cn(-c3ccc(C(F)(F)F)cc3)c3ccc(S(=O)(=O)NC)cc23)c1 [Example 11, 3-(1-ethyl-1H-imidazol-4-yl)-N-methyl-1-(4-(trifluoromethyl)phenyl)-1H-indole-5-sulfonamide] | < 0.1 | < 0.1
CNS(=O)(=O)c1ccc2c(c1)c(-c1cn(C3CCC3)cn1)cn2-c1ccc(C(F)(F)F)cc1 [Example 16] | < 0.1 | < 0.1
CNS(=O)(=O)c1ccc2c(c1)c(-c1cn(C3CC3)cn1)cn2-c1ccc(C(F)(F)F)cc1 [Example 28, 3-(1-cyclopropyl-1H-imidazol-4-yl)-N-methyl-1-(4-(trifluoromethyl)phenyl)-1H-indole-5-sulfonamide] | < 0.1 | < 0.1
CNS(=O)(=O)c1ccc2c(c1)c(-c1cn(CCOC)cn1)cn2-c1ccc(C(F)(F)F)cc1 [Example 38, 3-(1-(2-methoxyethyl)-1H-imidazol-4-yl)-N-methyl-1-(4-(trifluoromethyl)phenyl)-1H-indole-5-sulfonamide] | < 0.1 | < 0.1
CNS(=O)(=O)c1ccc2c(c1)c(-c1cn(C3CC3)cn1)cn2-c1ccc(C(F)(F)F)cc1F [Example 42, 3-(1-cyclopropyl-1H-imidazol-4-yl)-1-(2-fluoro-4-(trifluoromethyl)phenyl)-N-methyl-1H-indole-5-sulfonamide] | < 0.1 | < 0.1
CNS(=O)(=O)c1cnc2c(c1)c(-c1cn(C3CC3)cn1)cn2-c1ccc(C(F)(F)F)cc1 [Example 43, 3-(1-cyclopropyl-1H-imidazol-4-yl)-N-methyl-1-(4-(trifluoromethyl)phenyl)-1H-pyrrolo[2,3-b]pyridine-5-sulfonamide] | < 0.1 | < 0.1
CNS(=O)(=O)c1ccc2c(c1)c(-c1cn(C3CC3)cn1)nn2-c1ccc(C(F)(F)F)cc1 [Example 44, 3-(1-cyclopropyl-1H-imidazol-4-yl)-N-methyl-1-(4-(trifluoromethyl)phenyl)-1H-indazol-5-sulfonamide] | < 0.1 | < 0.1

Results, then the molecule that gave them:

IC50 [1] [µM] | GI50 [2] [µM] | Structure (SMILES)
< 0.1 | < 0.1 | CNS(=O)(=O)c1ccc2c(c1)c(-c1ccccn1)cn2-c1ccc(C(F)(F)F)cc1 [Example 8, N-methyl-3-(pyridin-2-yl)-1-(4-(trifluoromethyl)phenyl)-1H-indole-5-sulfonamide]
< 0.1 | < 0.1 | CNS(=O)(=O)c1ccc2c(c1)c(-c1ccc(C)o1)cn2-c1ccc(C(F)(F)F)cc1 [Example 10, N-methyl-3-(5-methylfuran-2-yl)-1-(4-(trifluoromethyl)phenyl)-1H-indole-5-sulfonamide]
< 0.1 | ≥ 0.1 | CNS(=O)(=O)c1ccc2c(c1)c(-c1ccccc1F)cn2-c1ccc(C(F)(F)F)cc1 [Example 13, 3-(2-fluorophenyl)-N-methyl-1-(4-(trifluoromethyl)phenyl)-1H-indole-5-sulfonamide]
< 0.1 | < 0.1 | CNS(=O)(=O)c1ccc2c(c1)c(-c1ncccc1F)cn2-c1ccc(C(F)(F)F)cc1 [Example 20, 3-(3-fluoropyridin-2-yl)-N-methyl-1-(4-(trifluoromethyl)phenyl)-1H-indole-5-sulfonamide]
< 0.1 | < 0.1 | CNS(=O)(=O)c1ccc2c(c1)c(-c1ccoc1)cn2-c1ccc(C(F)(F)F)cc1 [Example 23, 3-(furan-3-yl)-N-methyl-1-(4-(trifluoromethyl)phenyl)-1H-indole-5-sulfonamide]
< 0.1 | < 0.1 | CNS(=O)(=O)c1ccc2c(c1)c(-c1ccco1)cn2-c1ccc(C(F)(F)F)cc1 [Example 31, 3-(furan-2-yl)-N-methyl-1-(4-(trifluoromethyl)phenyl)-1H-indole-5-sulfonamide]
< 0.1 | < 0.1 | CNS(=O)(=O)c1ccc2c(c1)c(-c1cnc(C)o1)cn2-c1ccc(C(F)(F)F)cc1 [Example 32, N-methyl-3-(2-methyloxazol-5-yl)-1-(4-(trifluoromethyl)phenyl)-1H-indole-5-sulfonamide]
